# Results reported in patent US11925653B2, “Combination therapy effective against microorganisms, including drug resistant microorganisms” (Fleurir ABX LLC, priority 2021, dated 2024).
# Marks after values point to notes of the source that are not given here.
# Key:
# Enterococcus faecalis [1] = assay: MIC and synergy checkerboard assay, broth microdilution; type: cell-based
# S. saprophyticus = assay: MIC and synergy checkerboard assay, broth microdilution (uUTI species); type: cell-based, Staphylococcus saprophyticus
# Protocol: Minimum inhibitory concentration (MIC) assays were performed in a manner as described for the CLSI Agar dilution or broth microdilution assay guideline (see, Clinical Laboratory Standards Institute, 2009, Methods for Dilution Antimicrobial Susceptibility Tests for Bacteria That Grow Aerobically; Approved Standard, Eighth Edition, M07-A8, Vol. 29, No. 2). For example, known antibiotics or the compositions described herein were dissolved, serially diluted, and then added to tempered molten Mueller-Hinton Agar before pouring of plates; or were dissolved, and then serially diluted in 100 μL cation-adjusted Mueller-Hinton broth across the assay plate in the classical 2-fold geometric format. D-glucose-6-phosphate was included as a medium supplement in both agar, and broth at a concentration of 50 mg/L. Antibiotic concentrations for agar assay were at the final concentration. Antibiotic concentrations for broth microdilution in each well at this point were double what the final assay concentration would be. Bacterial inocula were prepared by swabbing several colonies from a fresh agar plate, and re-suspending the bacteria to a density that was the 0.5 McFarland turbidity standard, considered close or equivalent to 1×10^8 CFU/mL. For agar dilution, a steers replicator was utilized to deliver 1×10^4 CFU/spot. For broth microdilution, the bacterial inocula were diluted in the cation-adjusted Mueller-Hinton broth to 1×10^6 CFU/mL, and 100 μL was overlayered onto the wells containing a diluted antibiotic or a composition described. Following incubation as per the guideline, results were recorded as growth or no growth, and the lowest concentration of the antibiotic or the composition described where no growth was observed was declared the MIC. […]
# N. gonorrhoeae = assay: MIC and synergy checkerboard assay, agar dilution on GC agar; type: cell-based
# Protocol: Minimum inhibitory concentration (MIC) assays were performed in a manner as described for the CLSI Agar dilution or broth microdilution assay guideline (see, Clinical Laboratory Standards Institute, 2009, Methods for Dilution Antimicrobial Susceptibility Tests for Bacteria That Grow Aerobically; Approved Standard, Eighth Edition, M07-A8, Vol. 29, No. 2). For example, known antibiotics or the compositions described herein were dissolved, serially diluted, and then added to tempered molten Mueller-Hinton Agar before pouring of plates; or were dissolved, and then serially diluted in 100 μL cation-adjusted Mueller-Hinton broth across the assay plate in the classical 2-fold geometric format. D-glucose-6-phosphate was included as a medium supplement in both agar, and broth at a concentration of 50 mg/L. Antibiotic concentrations for agar assay were at the final concentration. Antibiotic concentrations for broth microdilution in each well at this point were double what the final assay concentration would be. Bacterial inocula were prepared by swabbing several colonies from a fresh agar plate, and re-suspending the bacteria to a density that was the 0.5 McFarland turbidity standard, considered close or equivalent to 1×10^8 CFU/mL. For agar dilution, a steers replicator was utilized to deliver 1×10^4 CFU/spot. For broth microdilution, the bacterial inocula were diluted in the cation-adjusted Mueller-Hinton broth to 1×10^6 CFU/mL, and 100 μL was overlayered onto the wells containing a diluted antibiotic or a composition described. Following incubation as per the guideline, results were recorded as growth or no growth, and the lowest concentration of the antibiotic or the composition described where no growth was observed was declared the MIC.
# To assay for synergy of antibacterial combinations, a recognized synergy checkerboard assay, adapted from the CLSI guideline microdilution assay, was utilized (see Eliopoulos, G. M., and Moellering, R. C, Jr., 1996. Antimicrobial Combinations, pg. 330-396. In: Lorian, V. (Ed.), Antibiotics in Laboratory Medicine, 4th Ed., Williams & Wilkins; Baltimore, MD). In the case of the agar dilution method, each antibiotic alone, or in combination was added to agar prior to plate pouring. For broth microdilution, the first compound (or antibiotic or agent) was diluted in cation-adjusted Mueller-Hinton broth across the plate along the horizontal axis with each well in a row containing 50 μL of an identical concentration of compound (or antibiotic). Along the vertical axis a dilution series of the second compound (or antibiotic) was dispensed. At this point the drug concentrations are four-fold of the final desired working concentration. […] Following incubation, wells with no growth are noted. […] FIC=(MIC-A combination/MIC-A alone)+(MIC-B combination/MIC-B alone).
# In the above, FIC: Synergy=FIC<0.5; Additive=FIC>0.5-1; Indifferent=FIC>1-2; Antagonism=FIC>2-4.
# Synergy is also identified in TABLE 9 (utilizing the agar checkerboard assay) against N. gonorrhoeae. In these analyses, the agar dilution was performed utilizing GC agar supplemented with Isovitalex, and 50 mg/L of D-glucose-6-phosphate. […] MIC comparator data was performed using the following known antibiotics: Ceftriaxone, Azithromycin, Cefixime, Ciprofloxacin, Tetracycline, Pristinamycin, Solithromycin, and Delafloxacin. Pristinamycin was purified from capsules obtained in France; Solithromycin, and Delafloxacin were synthesized internally for comparison.
# Enterococcus faecalis [2] = assay: minimum bactericidal concentration (MBC) assay; type: cell-based
# Protocol: (§1) Synergy was also assayed by both agar, and broth microdilution methods. Additional information gathered about the synergistic effect of the described composition as a combination therapy was evaluated by determining bacterial killing effect. This was performed as described above for the checkerboard synergy assay with the exception that the bacterial count in an assay well was determined by plating at the beginning of the experiment, and identifying at the end of incubation for an assay well where growth was inhibited. This has been adapted from both the broth microdilution, and the bactericidal assays (Clinical Laboratory Standards Institute (1999) Methods for Determining Bactericidal Activity of Antimicrobial Agents; Approved Guideline M26-A, Vol. 19, No. 18). […] The value derived was the reduction in bacterial numbers (viability) for the compounds when alone versus the described composition comprising the combined antibiotics.
# (§2) As there is no published definition for bactericidal synergy, MIC metric was utilized.
# Escherichia coli = assay: minimum bactericidal concentration (MBC) assay; type: cell-based
# Protocol: as §1, §2
# Pseudomonas aeruginosa = assay: minimum bactericidal concentration (MBC) assay; type: cell-based
# Protocol: as §1, §2
# Staphylococcus aureus = assay: minimum bactericidal concentration (MBC) assay; type: cell-based
# Protocol: as §1, §2
# [3] = representative pharmacokinetic parameters; type: in vivo
# From the text: The therapeutically effective amount may be modified by pharmacokinetic, and pharmacodynamic analysis as is understood in the field. In some embodiments, the novel composition may be provided prophylactically or preventatively or protectively, which may, in some instances, be at or below a therapeutically effective amount.
# E. faecalis = settings: cited from earlier work
# E. coli = settings: cited from earlier work
# susceptible bacteria = settings: susceptible strains of Escherichia coli and Enterococcus faecalis; cited from earlier work
# [4] = Enterococcus faecalis (ATCC 29212)
# [5] = Enterococcus faecalis (MGH-01) (VanA)
structure (smiles),measurement,setting,value
"C[C@@H]1O[C@@H]1P(=O)(O)O [Fosfomycin, cis-1,2-epoxypropyl phosphonic acid]",MIC (Combo as F/DP/SM; second compound as DP/SM),Enterococcus faecalis [1]; E. faecalis 1082155,32 µg/mL
same,MIC (Combo as F/DP/SM; second compound as DP/SM),Enterococcus faecalis [1]; E. faecalis 1120278,64 µg/mL
same,MIC (Combo as F/DP/SM; second compound as DP/SM),Enterococcus faecalis [1]; E. faecalis 1129099,4 µg/mL
same,MIC (Combo as F/DP/SM; second compound as DP/SM),Enterococcus faecalis [1]; E. faecalis 1175598,32 µg/mL
same,MIC (Combo as F/DP/SM; second compound as DP/SM),Enterococcus faecalis [1]; E. faecalis 10864321,32 µg/mL
same,MIC (Combo as F/DP/SM; second compound as DP/SM),Enterococcus faecalis [1]; [4],64 µg/mL
same,MIC (Combo as F/DP/SM; second compound as DP/SM),Enterococcus faecalis [1]; [5],256* μg/ml
same,MIC (Combo as F/DP/SM; second compound as DP/SM),Enterococcus faecalis [1]; Enterococcus faecalis (MGH-06),128* μg/ml
same,MIC (Combo as F/DP/SM; second compound as DP/SM),S. saprophyticus; S. saprophyticus 1119421,32 µg/mL
same,MIC (Combo as F/DP/SM; second compound as DP/SM),S. saprophyticus; S. saprophyticus 1124324,32 µg/mL
same,MIC (Combo as F/DP/SM; second compound as DP/SM),S. saprophyticus; S. saprophyticus 1136894,64 µg/mL
same,MIC (Combo as F/DP/SM; second compound as DP/SM),N. gonorrhoeae; N. gonorrhoeae 127781,16 µg/mL
same,MIC (Combo as F/DP/SM; second compound as DP/SM),N. gonorrhoeae; N. gonorrhoeae 127782,16 µg/mL
same,MIC (Combo as F/DP/SM; second compound as DP/SM),N. gonorrhoeae; N. gonorrhoeae 127783,16 µg/mL
same,MIC (Combo as F/DP/SM; second compound as DP/SM),N. gonorrhoeae; N. gonorrhoeae 127786,16 µg/mL
same,MIC (Combo as F/DP/SM; second compound as DP/SM),N. gonorrhoeae; N. gonorrhoeae 1117522,16 µg/mL
same,MIC (Combo as F/DP/SM; second compound as DP/SM),N. gonorrhoeae; N. gonorrhoeae 1117523,16 µg/mL
same,MIC (Combo as F/DP/SM; second compound as DP/SM),N. gonorrhoeae; N. gonorrhoeae 1117524,8 µg/mL
same,MIC (Combo as F/DP/SM; second compound as DP/SM),N. gonorrhoeae; N. gonorrhoeae 1117525,8 µg/mL
same,MIC (Combo as F/DP/SM; second compound as DP/SM),N. gonorrhoeae; N. gonorrhoeae 1117527,8 µg/mL
same,"MBC, lowest concentration providing a >3-log reduction within 24 hours (Combo as F/DP/SM; second compound as DP/SM)",Enterococcus faecalis [2]; [4],≥512 μg/ml
same,"MBC, lowest concentration providing a >3-log reduction within 24 hours (Combo as F/DP/SM; second compound as DP/SM)",Enterococcus faecalis [2]; [5],≥512 μg/ml
same,"MBC, lowest concentration providing a >3-log reduction within 24 hours (Combo as F/DP/SM; second compound as DP/SM)",Enterococcus faecalis [2]; Enterococcus faecalis (MGH-06),512 μg/ml
same,"MBC, lowest concentration providing a >3-log reduction within 24 hours (Combo as F/DP/SM; second compound as DP/SM)",Escherichia coli; Escherichia coli (854535),256 μg/ml
same,"MBC, lowest concentration providing a >3-log reduction within 24 hours (Combo as F/DP/SM; second compound as DP/SM)",Escherichia coli; Escherichia coli (928017),256 μg/ml
same,"MBC, lowest concentration providing a >3-log reduction within 24 hours (Combo as F/DP/SM; second compound as DP/SM)",Escherichia coli; Escherichia coli (ATCC 25922),32 μg/ml
same,"MBC, lowest concentration providing a >3-log reduction within 24 hours (Combo as F/DP/SM; second compound as DP/SM)",Pseudomonas aeruginosa; Pseudomonas aeruginosa (924190),>512 μg/ml
same,"MBC, lowest concentration providing a >3-log reduction within 24 hours (Combo as F/DP/SM; second compound as DP/SM)",Pseudomonas aeruginosa; Pseudomonas aeruginosa (985543),512 μg/ml
same,"MBC, lowest concentration providing a >3-log reduction within 24 hours (Combo as F/DP/SM; second compound as DP/SM)",Staphylococcus aureus; Staphylococcus aureus (918019 - MRSA),128 μg/ml
same,"MBC, lowest concentration providing a >3-log reduction within 24 hours (Combo as F/DP/SM; second compound as DP/SM)",Staphylococcus aureus; Staphylococcus aureus (959797 - MRSA),64 μg/ml
same,"MBC, lowest concentration providing a >3-log reduction within 24 hours (Combo as F/DP/SM; second compound as DP/SM)",Staphylococcus aureus; Staphylococcus aureus (ATCC 29213 - MSSA),128 μg/ml
same,"MBC, lowest concentration providing a >3-log reduction within 24 hours (Combo as F/DP/SM; second compound as DP/SM)",Staphylococcus aureus; Staphylococcus aureus (ATCC 33591) (MRSA),256 μg/ml
same,"MBC, lowest concentration providing a >3-log reduction within 24 hours (Combo as F/DP/SM; second compound as DP/SM)",Staphylococcus aureus; Staphylococcus aureus (MGH-04),256 μg/ml
same,"MBC, lowest concentration providing a >3-log reduction within 24 hours (Combo as F/DP/SM; second compound as DP/SM)",Staphylococcus aureus; Staphylococcus aureus (USA-300 CDC- MRSA),256 μg/ml
same,kel (elimination rate constant),"[3]; Dose: Fosfomycin 3000 mg, trimethoprim 720 mg",0.122 h⁻¹
same,half-life,"[3]; in vivo, 3000 mg, read-out: T ½ (converted)",5.7 h
same,Tmax,"[3]; in vivo, read-out: Tmax",2 h
same,MIC,E. faecalis,32 to 128 µg/mL
same,MIC,E. coli,0.5 to 2 µg/mL
same,MIC,susceptible bacteria,≤ 64 µg/mL
